In patent US9085576B2 (AMGEN INC., priority 2013, dated 2015):
Where a name gives a salt, the structure may show the parent alone.

Target: Cathepsin D (Cat D) (Homo sapiens (Human), UniProt P07339)
Experiment: In vitro enzymatic Cathepsin D (Cat D) FRET assay
Format: biochemical
Conditions: read-out: CatD IC50

Sequence of Cathepsin D (Cat D) (P07339 65-412, species assumed): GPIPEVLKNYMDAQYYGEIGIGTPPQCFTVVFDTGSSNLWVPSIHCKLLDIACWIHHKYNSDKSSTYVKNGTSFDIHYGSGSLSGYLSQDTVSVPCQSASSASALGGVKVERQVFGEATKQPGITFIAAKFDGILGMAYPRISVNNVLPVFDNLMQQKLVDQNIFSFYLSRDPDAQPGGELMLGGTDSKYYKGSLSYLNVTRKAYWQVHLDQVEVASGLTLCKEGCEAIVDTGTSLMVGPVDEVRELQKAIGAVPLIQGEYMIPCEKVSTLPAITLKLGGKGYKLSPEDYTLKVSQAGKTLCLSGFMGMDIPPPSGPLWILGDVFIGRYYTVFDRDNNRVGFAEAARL

Row | IC50 [µM] | SMILES
1 | 462 | Cc1cc(OCC#CC(C)(C)O)cnc1C(=O)Nc1ccc(F)c(C2(C)N=C(N)O[C@H]3C[C@H]32)c1 (mixture of isomers) [Example 29, N-(3-([1(R,S),5(S,R),6(R,S)]-3-amino-5-methyl-2-oxa-4-azabicyclo[4.1.0]hept-3-en-5-yl)-4-fluorophenyl)-5-((4-hydroxy-4-methylpent-2-yn-1-yl)oxy)-3-methylpicolinamide]
2 | 339 | COc1c(F)cc(NC(=O)c2ccc(Cl)cn2)cc1[C@@]1(CF)N=C(N)O[C@@H]2C[C@@H]21 (racemic) [Example 31, N-(3-([(1R,S),(5S,R),(6R,S)]-3-amino-5-(fluoromethyl)-2-oxa-4-azabicyclo[4.1.0]hept-3-en-5-yl)-5-fluoro-4-methoxyphenyl)-5-chloropicolinamide]
3 | 899 | N#Cc1ccc(C(=O)Nc2ccc(F)c([C@]3(C(F)F)N=C(N)O[C@H]4C[C@H]43)c2)nc1 (racemic) [Example 59, N-(3-([1(R,S),5(S,R),6(R,S)]-3-amino-5-(difluoromethyl)-2-oxa-4-azabicyclo[4.1.0]hept-3-en-5-yl)-4-fluorophenyl)-5-cyanopicolinamide compound]
4 | 1100 | N#Cc1cnc(C(=O)Nc2ccc(F)c([C@]3(C(F)F)N=C(N)O[C@H]4C[C@H]43)c2)c(Cl)c1 (racemic) [Example 62, N-(3-([1(R,S),5(S,R),6(R,S)]-3-amino-5-(difluoromethyl)-2-oxa-4-azabicyclo[4.1.0]hept-3-en-5-yl)-4-fluorophenyl)-3-chloro-5-cyanopicolinamide]
5 | 348 | N#Cc1ccc(C(=O)Nc2cnc(F)c([C@]3(C(F)F)N=C(N)O[C@H]4C[C@H]43)c2)nc1 (racemic) [Example 75, N-(5-([1(R,S),5(S,R),6(R,S)]-3-amino-5-(difluoromethyl)-2-oxa-4-azabicyclo[4.1.0]hept-3-en-5-yl)-6-fluoropyridin-3-yl)-5-cyanopicolinamide]
6 | 1160 | N#Cc1ccc(C(=O)Nc2ccc(Cl)c([C@@]3(C(F)F)N=C(N)O[C@@H]4C[C@@H]43)c2)nc1 (racemic) [Example 98, N-(3-(((1R,S), (5S,R), (6R,S))-3-amino-5-(difluoromethyl)-2-oxa-4-azabicyclo[4.1.0]hept-3-en-5-yl)-4-chlorophenyl)-5-cyanopicolinamide trifluoroacetate]
7 | > 400 | N#Cc1ccc(C(=O)Nc2cc(F)c(F)c([C@@]3(C(F)F)N=C(N)O[C@@H]4C[C@@H]43)c2)nc1 (stereo in doubt) [Example 109, N-(3-((1R,5S,6R)-3-amino-5-(difluoromethyl)-2-oxa-4-azabicyclo[4.1.0]hept-3-en-5-yl)-4,5-difluorophenyl)-5-cyanopicolinamide]
8 | 364 | N#Cc1ccc(C(=O)Nc2cc(F)c(F)c([C@@]3(CF)N=C(N)O[C@@H]4C[C@@H]43)c2)nc1 [Example 37, N-(3-((1R,5S,6R)-3-amino-5-(fluoromethyl)-2-oxa-4-azabicyclo[4.1.0]hept-3-en-5-yl)-4,5-difluorophenyl)-5-cyanopicolinamide]
9 | 2620 | N#Cc1ccc(C(=O)Nc2cc(F)c(F)c([C@]3(CF)N=C(N)O[C@H]4C[C@H]43)c2)nc1 [Example 38, N-(3-((1S,55,6S) 3-amino-5-(fluoromethyl)-2-oxa-4-azabicyclo[4.1.0]hept-3-en-5-yl)-4,5-difluorophenyl)-5-cyanopicolinamide]
10 | 238 | COc1ccc(C(=O)Nc2cc(F)c(F)c([C@@]3(CF)N=C(N)O[C@@H]4C[C@@H]43)c2)nc1 [Example 41, N-(3-((1R,5S,6R)-3-amino-5-(fluoromethyl)-2-oxa-4-azabicyclo[4.1.0]hept-3-en-5-yl)-4,5-difluorophenyl)-5-methoxypicolinamide]
11 | 736 | COCc1cc(Cl)cnc1C(=O)Nc1ccc(F)c([C@@]2(C(F)F)N=C(N)O[C@@H]3C[C@@H]32)c1 [Example 42, N-(3-((1R,5S,6R)-3-amino-5-(difluoromethyl)-2-oxa-4-azabicyclo[4.1.0]hept-3-en-5-yl)-4-fluorophenyl)-5-chloro-3-(methoxymethyl) picolinamide]
12 | > 400 | N#Cc1ccc(C(=O)Nc2ccc(F)c([C@]3(C(F)F)N=C(N)O[C@H]4C[C@H]43)c2)nc1 [Example 65, N-(3-((1S,5R,6S)-3-amino-5-(difluoromethyl)-2-oxa-4-azabicyclo[4.1.0]hept-3-en-5-yl)-4-fluorophenyl)-5-cyanopicolinamide]
13 | 1290 | N#Cc1cnc(C(=O)Nc2ccc(F)c([C@]3(C(F)F)N=C(N)O[C@H]4C[C@H]43)c2)c(Cl)c1 [Example 67, N-(3-((1S,5R,6S)-3-amino-5-(difluoromethyl)-2-oxa-4-azabicyclo[4.1.0]hept-3-en-5-yl)-4-fluorophenyl)-3-chloro-5-cyanopicolinamide]
14 | 1920 | N#Cc1ccc(C(=O)Nc2ccc(Cl)c([C@]3(C(F)F)N=C(N)O[C@H]4C[C@H]43)c2)nc1 [Example 94, N-(3-((1S,5R,6S)-3-amino-5-(difluoromethyl)-2-oxa-4-azabicyclo[4.1.0]hept-3-en-5-yl)-4-chlorophenyl)-5-cyanopicolinamide]
15 | 213 | NC1=N[C@@](c2cc(NC(=O)c3ccc(Cl)cn3)cc(F)c2F)(C(F)F)[C@H]2C[C@H]2O1 [Example 107, N-(3-((1R,5S,6R)-3-amino-5-(difluoromethyl)-2-oxa-4-azabicyclo[4.1.0]hept-3-en-5-yl)-4,5-difluorophenyl)-5-chloropicolinamide]
16 | 472 | NC1=N[C@](c2cc(NC(=O)c3ccc(Cl)cn3)cc(F)c2F)(C(F)F)[C@@H]2C[C@@H]2O1 [Example 108, N-(3-((1S,5R,6S)-3-amino-5-(difluoromethyl)-2-oxa-4-azabicyclo[4.1.0]hept-3-en-5-yl)-4,5-difluorophenyl)-5-chloropicolinamide]
17 | 4180 | COc1cnc(C(=O)Nc2cc(F)c(F)c([C@@]3(C(F)F)N=C(N)O[C@@H]4C[C@@H]43)c2)cn1 [Example 112, N-(3-((1R,5S,6R)-3-amino-5-(difluoromethyl)-2-oxa-4-azabicyclo[4.1.0]hept-3-en-5-yl)-4,5-difluorophenyl)-5-methoxypyrazine-2-carboxamide]
18 | > 618 | N#Cc1ccc(C(=O)Nc2cc(F)c(F)c([C@@]3(C(F)F)N=C(N)O[C@@H]4C[C@@H]43)c2)nc1 [Example 113, N-(3-((1R,5S,6R)-3-amino-5-(difluoromethyl)-2-oxa-4-azabicyclo[4.1.0]hept-3-en-5-yl)-4,5-difluorophenyl)-5-cyanopicolinamide]
19 | 81.9 | NC1=N[C@@](c2cc(NC(=O)c3ccc(Br)cn3)cc(F)c2F)(C(F)F)[C@H]2C[C@H]2O1 [Example 116, N-(3-((1R,5S,6R)-3-amino-5-(difluoromethyl)-2-oxa-4-azabicyclo[4.1.0]hept-3-en-5-yl)-4,5-difluorophenyl)-5-bromopicolinamide]

Row | SMILES | IC50 [µM]
20 | Cc1cc(NC(=O)c2ccc(Cl)cn2)cc([C@@]2(C(F)F)N=C(N)O[C@@H]3C[C@@H]32)c1F (racemic) [Example 30, N-(3-([(1R,S),(5S,R),(6R,S)]-3-amino-5-(difluoromethyl)-2-oxa-4-azabicyclo[4.1.0]hept-3-en-5-yl)-4-fluoro-5-methylphenyl)-5-chloropicolinamide] | 469
